Measurements published in article PMC10477481 (The Journal of Biological Chemistry, 2023).

What was measured:
[1] = target: T1, recombinant human active MMP-2 (Homo sapiens, UniProt P08253); assay type: biochemical; settings: pH 7.4
T1 construct: the mature active enzyme (amino acids: 110–660), expressed in E. coli (Sigma, catalog no.: SRP3118); purchased Sigma SRP3118; host or cells: E. coli
T1 sequence (P08253 110-660): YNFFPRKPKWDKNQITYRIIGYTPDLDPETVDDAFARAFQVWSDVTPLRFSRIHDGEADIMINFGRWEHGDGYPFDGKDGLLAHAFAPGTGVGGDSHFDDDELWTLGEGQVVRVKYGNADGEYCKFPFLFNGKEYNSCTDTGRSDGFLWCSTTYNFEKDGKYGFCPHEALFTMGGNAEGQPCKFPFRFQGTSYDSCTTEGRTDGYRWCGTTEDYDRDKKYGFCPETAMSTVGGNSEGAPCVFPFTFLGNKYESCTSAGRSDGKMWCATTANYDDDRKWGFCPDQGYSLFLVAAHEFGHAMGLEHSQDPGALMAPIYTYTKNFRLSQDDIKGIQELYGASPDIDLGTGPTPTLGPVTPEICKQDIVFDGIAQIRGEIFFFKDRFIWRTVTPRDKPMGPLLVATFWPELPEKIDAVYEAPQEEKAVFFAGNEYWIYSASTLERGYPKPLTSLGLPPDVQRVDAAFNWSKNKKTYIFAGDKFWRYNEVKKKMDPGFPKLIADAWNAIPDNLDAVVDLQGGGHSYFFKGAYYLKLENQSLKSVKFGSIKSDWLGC
Procedure: The assay was performed using fluorogenic dye-quenched (DQ)-gelatin from pig skin (ThermoFisher Scientific) as substrate and recombinant human MMP-2 enzyme (Sigma; catalog no.: SRP3118), dissolved in water (100 μg/ml), and diluted further in reaction buffer (50 mM Tris, 150 mM NaCl, 5 mM CaCl2, pH = 7.4). The assay (and control) reactions were composed by loading 50 μl enzyme (or buffer), 40 μl inhibitor (or buffer), and 10 μl substrate (or buffer) into wells of a 96-well plate (PS, black, half-area, clear-bottom; Greiner Bio-One) at concentrations needed for the stated final concentrations. […] Immediately thereafter, the plate was placed in a fluorescence plate reader (SpectraMax iD3; Molecular Devices), and fluorescence was measured every 15 min for 3 h (KM measurements) or every 5 min for 1 h (inhibitor measurements) at 37 °C (λexcitation = 484 nm and λemission = 525 nm). KM was determined by measuring V0 at a series of substrate concentrations (1.25, 2.5, 5, 10, 20, and 40 μg/ml) and enzyme concentrations of 2.5, 5, and 10 nM. Thereafter, the lowest enzyme concentration with reasonably good signal-to-noise ratio (2.5 nM) and a substrate concentration (3.5 μg/ml) approximately equivalent with the determined KM value (3.4 μg/ml, i.e., 34 nmol/l as calculated with approximate MW of 100,000 g/mol for DQ gelatin) were applied in the enzyme inhibition study. […]

[2] = test system: pro-MMP-2 activated by APMA; settings: fluorescence-quenched MMP-specific peptide substrate; read-out: KM of FS-6 with MMP; cited from earlier work
Procedure: The assay was performed using a fluorescence-quenched MMP-specific peptide substrate FS-6 (Sigma; catalog no.: SCP0193, KM >30 μM) ([20]). Recombinantly produced human proMMP2 enzyme, dissolved in reaction buffer (70 mM Tris [pH 8.0], 150 mM NaCl, 5 mM CaCl2, 1 μM ZnCl2, and 0.05% Brij-35) at a concentration of 500 nM, was activated by addition of 1 mM APMA and incubated at 37 °C for 1 h. The assay reaction was then composed by adding 0.5 μl activated enzyme to yield a final concentration of 2.5 nM, 94.5 μl test substance (inhibitor) in reaction buffer, and finally 5 μl substrate to reach a fi ...

[3] = target: matrix metalloproteinase 2, recombinant (which of the four preparations is not told) (human) (UniProt P08253); assay: flow cytometry of protein-coated microbeads (Ig-coated bead test); KD estimated by the authors from the direct binding assays with labeled CTX and the competitive displacement studies together
kallikrein = settings: cited from earlier work
Excerpt: Therefore, we produced a CTX-displaying phage clone, customized, and validated the flow cytometry–based cobalt-coated bead test for quantitative assessment of the binding tendency of ligand-displaying phages to target proteins immobilized on the surface of microbeads. To support the validation and to investigate the specificity of bind ...

## CNC(=O)[C@H](Cc1c[nH]c2ccccc12)NC(=O)[C@@H](CC(=O)NO)CC(C)C [Ilomastat, ilomastat]
[1]
  effect on gelatinolytic activity of MMP-2: concentration-dependent inhibition

## Mca-Lys-Pro-Leu-Gly-Leu-Dpa-Ala-Arg-NH2 [FS-6, fluorescence-quenched MMP-specific peptide substrate]
[2]
  Km: > 30 µM

## chlorotoxin, synthetically produced, with carboxamide C terminus (from UniProt P45639 1-36) (peptide)
[3]
  Kd: 500 to 600 nM

## ecallantide [DX-88]
kallikrein
  affinity to kallikrein: subnanomolar affinity
